Measurements from PubChem BioAssay AID248 (DTP/NCI, 2004).
Values joined by “and” are separate entries in the source; they are usually repeats but may differ in a detail not shown here. Equal entries are not always repeated. Toxic doses and inconclusive results are not listed. Rule as the data show it: active = T/C of 150% or more; inactive = T/C below 125%.

Tested on: L1210 leukemia ip in BDF1 mice, survival T/C
Experiment: NCI In Vivo Anticancer Drug Screen. Data for tumor model L1210 Leukemia (intraperitoneal) in B6D2F1 (BDF1) mice
Conditions: endpoint: mean survival time, higher = longer survival
Method in brief: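 Transplantable tumor model; survival measured in treated vs vehicle control mice. Value = treated/control.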

[1] = dose: 100.0 mg/kg/injection, schedule: Q01DX001 (ip), vehicle: Klucel (hydroxypropylcellulose) (HPC)
[2] = dose: 100.0 mg/kg/injection, schedule: Q01DX009 (ip), vehicle: Klucel (hydroxypropylcellulose) (HPC)
[3] = dose: 100.0 mg/kg/injection, schedule: Q04DX002 (ip), vehicle: Klucel (hydroxypropylcellulose) (HPC)
[4] = dose: 100.0 mg/kg/injection, schedule: Q04DX003 (ip), vehicle: Klucel (hydroxypropylcellulose) (HPC)
[5] = dose: 200.0 mg/kg/injection, schedule: Q01DX001 (ip), vehicle: Klucel (hydroxypropylcellulose) (HPC)
[6] = dose: 200.0 mg/kg/injection, schedule: Q01DX009 (ip), vehicle: Klucel (hydroxypropylcellulose) (HPC)
[7] = dose: 200.0 mg/kg/injection, schedule: Q04DX003 (ip), vehicle: Klucel (hydroxypropylcellulose) (HPC)
[8] = dose: 400.0 mg/kg/injection, schedule: Q01DX001 (ip), vehicle: Klucel (hydroxypropylcellulose) (HPC)
[9] = dose: 400.0 mg/kg/injection, schedule: Q01DX009 (ip), vehicle: Klucel (hydroxypropylcellulose) (HPC)
[10] = dose: 400.0 mg/kg/injection, schedule: Q04DX003 (ip), vehicle: Klucel (hydroxypropylcellulose) (HPC)
[11] = dose: 100.0 mg/kg/injection, schedule: Q01DX001 (ip), vehicle: saline
[12] = dose: 200.0 mg/kg/injection, schedule: Q01DX001 (ip), vehicle: saline
[13] = dose: 400.0 mg/kg/injection, schedule: Q01DX001 (ip), vehicle: saline
[14] = dose: 75.0 mg/kg/injection, schedule: Q01DX001 (ip), vehicle: saline
[15] = dose: 150.0 mg/kg/injection, schedule: Q01DX001 (ip), vehicle: saline
[16] = dose: 300.0 mg/kg/injection, schedule: Q01DX001 (ip), vehicle: saline
[17] = dose: 100.0 mg/kg/injection, schedule: Q04DX003 (ip), vehicle: saline
[18] = dose: 100.0 mg/kg/injection, schedule: Q04DX003 (ip), vehicle: saline with Tween-80
[19] = dose: 200.0 mg/kg/injection, schedule: Q04DX003 (ip), vehicle: saline with Tween-80
[20] = dose: 400.0 mg/kg/injection, schedule: Q04DX003 (ip), vehicle: saline with Tween-80

Measured: T/C

Cc1ccc([N+](=O)[O-])cc1NC(=O)N1CCCCC1C (stereo unspecified)
inactive: [1] 97 % of control | [2] 106 % of control and 90 % of control | [3] 97 % of control and 102 % of control | [4] 100 % of control | [5] 111 % of control | [6] 92 % of control and 97 % of control | dose: 200.0 mg/kg/injection, schedule: Q04DX002 (ip), vehicle: Klucel (hydroxypropylcellulose) (HPC) 97 % of control and 104 % of control | [7] 88 % of control | [8] 101 % of control | [9] 108 % of control and 87 % of control | dose: 400.0 mg/kg/injection, schedule: Q04DX002 (ip), vehicle: Klucel (hydroxypropylcellulose) (HPC) 93 % of control and 102 % of control | [10] 104 % of control

Cc1ccc(C(=O)c2ccc(Cl)cc2)cc1
inactive: dose: 50.0 mg/kg/injection, schedule: Q01DX001 (ip), vehicle: saline 90 % of control | [11] 98 % of control | [12] 102 % of control | [13] 96 % of control

O=C(O)CC1CCC2CC(O)c3cccc1c32 (stereo unspecified)
inactive: dose: 100.0 mg/kg/injection, schedule: Q04DX003 (ip), vehicle: acetone 106 % of control | dose: 200.0 mg/kg/injection, schedule: Q04DX003 (ip), vehicle: acetone 105 % of control | dose: 400.0 mg/kg/injection, schedule: Q04DX003 (ip), vehicle: acetone 105 % of control

O=C1C2C3CCC(CC3)C2C(O)C2C3CCC(C3)C12 (stereo unspecified)
inactive: dose: 50.0 mg/kg/injection, schedule: Q01DX009 (ip), vehicle: saline with Tween-80 93 % of control | dose: 100.0 mg/kg/injection, schedule: Q01DX009 (ip), vehicle: saline with Tween-80 96 % of control | dose: 200.0 mg/kg/injection, schedule: Q01DX009 (ip), vehicle: saline with Tween-80 93 % of control

Cn1c(Cc2ccccc2)c(-c2ccccc2)c(-c2ccccc2)c1Cc1ccccc1
inactive: [14] 94 % of control | [15] 88 % of control | [16] 93 % of control

COC(=O)c1ccc(-c2c3ccc(=O)cc-3oc3cc(O)ccc23)c(C(=O)OC)c1
inactive: dose: 50.0 mg/kg/injection, schedule: Q04DX003 (ip), vehicle: gum acacia 102 % of control | dose: 100.0 mg/kg/injection, schedule: Q04DX003 (ip), vehicle: gum acacia 98 % of control | dose: 200.0 mg/kg/injection, schedule: Q04DX003 (ip), vehicle: gum acacia 102 % of control | dose: 400.0 mg/kg/injection, schedule: Q04DX003 (ip), vehicle: gum acacia 95 % of control

C1N2CN3CN1CN(C2)C3
inactive: dose: 50.0 mg/kg/injection, schedule: Q01DX001 (ip), vehicle: carboxymethylcellulose (CMC) 104 % of control | dose: 100.0 mg/kg/injection, schedule: Q01DX001 (ip), vehicle: carboxymethylcellulose (CMC) 104 % of control | dose: 100.0 mg/kg/injection, schedule: Q04DX002 (ip), vehicle: saline 100 % of control | dose: 200.0 mg/kg/injection, schedule: Q01DX001 (ip), vehicle: carboxymethylcellulose (CMC) 112 % of control | dose: 200.0 mg/kg/injection, schedule: Q04DX002 (ip), vehicle: saline 100 % of control | dose: 400.0 mg/kg/injection, schedule: Q01DX001 (ip), vehicle: carboxymethylcellulose (CMC) 101 % of control | dose: 400.0 mg/kg/injection, schedule: Q04DX002 (ip), vehicle: saline 114 % of control

O=C1C2C3CCC(O3)C2C(=O)N1C(=O)N1C(=O)C2C3CCC(O3)C2C1=O (stereo unspecified)
inactive: dose: 25.0 mg/kg/injection, schedule: Q04DX002 (ip), vehicle: Klucel (hydroxypropylcellulose) (HPC) 101 % of control | dose: 50.0 mg/kg/injection, schedule: Q04DX002 (ip), vehicle: Klucel (hydroxypropylcellulose) (HPC) 94 % of control | [3] 111 % of control and 89 % of control

CCc1cccc[n+]1Cc1ccccc1
inactive: dose: 50.0 mg/kg/injection, schedule: Q01DX009 (ip), vehicle: saline 90 % of control

CC1(c2cccc([N+](=O)[O-])c2)OCCO1
inactive: dose: 100.0 mg/kg/injection, schedule: Q01DX009 (ip), vehicle: other 100 % of control | dose: 100.0 mg/kg/injection, schedule: Q04DX003 (ip), vehicle: other 103 % of control | dose: 200.0 mg/kg/injection, schedule: Q01DX009 (ip), vehicle: other 98 % of control | dose: 200.0 mg/kg/injection, schedule: Q04DX003 (ip), vehicle: other 104 % of control | dose: 400.0 mg/kg/injection, schedule: Q01DX009 (ip), vehicle: other 104 % of control | dose: 400.0 mg/kg/injection, schedule: Q04DX003 (ip), vehicle: other 100 % of control

Cc1ccc(NC(=O)N(C)CCC#N)cc1
inactive: dose: 100.0 mg/kg/injection, schedule: Q04DX002 (ip), vehicle: saline with Tween-80 97 % of control | dose: 200.0 mg/kg/injection, schedule: Q04DX002 (ip), vehicle: saline with Tween-80 94 % of control | dose: 400.0 mg/kg/injection, schedule: Q04DX002 (ip), vehicle: saline with Tween-80 87 % of control

CSCC(C)O (stereo unspecified)
inactive: [17] 109 % of control | dose: 200.0 mg/kg/injection, schedule: Q04DX003 (ip), vehicle: saline 115 % of control | dose: 400.0 mg/kg/injection, schedule: Q04DX003 (ip), vehicle: saline 109 % of control

O=[N+]([O-])c1ccc(C(=NO)c2ccc([N+](=O)[O-])cc2)cc1
inactive: [1] 103 % of control | [5] 109 % of control | [8] 101 % of control

O=C(Oc1ccncc1)c1ccccc1
inactive: dose: 100.0 mg/kg/injection, schedule: Q01DX001 (ip), vehicle: saline with Tween-80 92 % of control | dose: 200.0 mg/kg/injection, schedule: Q01DX001 (ip), vehicle: saline with Tween-80 96 % of control | dose: 400.0 mg/kg/injection, schedule: Q01DX001 (ip), vehicle: saline with Tween-80 103 % of control

OC(CNc1ccc(Cl)cc1)CN1CCCCC1 (stereo unspecified)
inactive: dose: 50.0 mg/kg/injection, schedule: Q04DX003 (ip), vehicle: saline 91 % of control | [11] 100 % of control | [17] 98 % of control | [12] 90 % of control

c1ccc(-c2cc(-c3ccccc3)c(-c3ccccc3)o2)cc1
inactive: dose: 50.0 mg/kg/injection, schedule: Q01DX001 (ip), vehicle: Klucel (hydroxypropylcellulose) (HPC) 92 % of control | [1] 100 % of control | [5] 92 % of control

CN(C)C(=O)Nc1cccc(OC(=O)NC2CCCC2)c1
inactive: [18] 100 % of control | [19] 95 % of control | [20] 100 % of control

CCCCCCCCCCCC[N+](C)(C)CCn1cnc2c(N)ncnc21
inactive: dose: 6.25 mg/kg/injection, schedule: Q04DX003 (ip), vehicle: saline 106 % of control | dose: 12.5 mg/kg/injection, schedule: Q04DX003 (ip), vehicle: saline 109 % of control | dose: 25.0 mg/kg/injection, schedule: Q04DX003 (ip), vehicle: saline 103 % of control

CC(=O)c1c(OC(C)C(=O)O)ccc2ccccc12 (stereo unspecified)
inactive: [11] 98 % of control | [12] 101 % of control | [13] 107 % of control

CNC(=O)Nc1ncnn1Cc1ccccc1
inactive: dose: 100.0 mg/kg/injection, schedule: Q01DX009 (ip), vehicle: saline 92 % of control | dose: 200.0 mg/kg/injection, schedule: Q01DX009 (ip), vehicle: saline 97 % of control

CCCCCCCCP(=O)(CCCCCCCC)C(O)C(Cl)(Cl)Cl (stereo unspecified)
inactive: [18] 91 % of control | [19] 96 % of control | [20] 92 % of control

NNC(=O)C1CCC1C(=O)NN (stereo unspecified)
inactive: [14] 103 % of control | dose: 75.0 mg/kg/injection, schedule: Q04DX003 (ip), vehicle: saline 96 % of control | [15] 99 % of control | dose: 150.0 mg/kg/injection, schedule: Q04DX003 (ip), vehicle: saline 103 % of control | [16] 97 % of control | dose: 300.0 mg/kg/injection, schedule: Q04DX003 (ip), vehicle: saline 103 % of control

O=[N+]([O-])c1ccc(Cl)c(C(=S)N2CCCCC2)c1
inactive: [4] 99 % of control | [7] 96 % of control | [10] 96 % of control

COc1cc(/C=N\N=C(/C)c2ccc(F)cc2)cc(OC)c1OC
inactive: [2] 87 % of control | [6] 86 % of control | [9] 89 % of control
